Laboratory results reported in US10201556B2, “Combination for use in treating diseases or conditions associated with melanoma, or treating diseases or conditions associated with activated B-raf pathway” (InteRNA Technologies B.V., priority 2012, dated 2019).

Experiments:
A2058 melanoma cell line = assay: Anti-proliferative effect of small molecules, MTS assay; assay type: cell-based; details: Homo sapiens, A2058, intrinsic resistance, 72 hours
Protocol: (§1) The anti-proliferative effect of small molecules in melanoma cell lines was determined with V600E BRAF inhibitor, vemurafenib (PLX-4032, 51267, Selleck) and MEK inhibitor, selumetinib (AZD-6244, S1008, Selleck). For each cell line optimal growth conditions were determined prior to the experiment. Cells were plated in a 96-well plate at 3000 cells per well (100 uL) and were grown at 37 C, 5% CO2. Small molecule mix (50 uL per well) was made for each concentration in medium. Cells were treated in triplicate 24 hours after plating. After 72 hours medium was replaced and viability was measured with the MTS assay (Promega) according to manufacturer's instructions. Cell viability inhibition is normalized against loading control (0.1% DMSO) and GraphPad Prism was used to fit the curve and calculate GI50 values.

[1] = test system: A375Hu melanoma cell line; assay: as above; assay type: cell-based; details: Homo sapiens, A-375, 72 h, A375Hu (A375), vemurafenib sensitive
Protocol: as §1

M249 melanoma cell line = assay: as above; assay type: cell-based; details: M249, 72 h, M249, vemurafenib sensitive
Protocol: as §1

[2] = test system: M249-R4 melanoma cell line; assay: as above; assay type: cell-based; details: M249-R4 (M249-AR4), in vitro acquired resistance, 72 hours
Protocol: as §1

[3] = test system: RPMI-7951 melanoma cell line; assay: as above; assay type: cell-based; details: Homo sapiens; RPMI-7951, intrinsic resistance; 72 hours, MTS
Protocol: as §1

[4] = test system: A375Hu-R1 (vemurafenib resistant clone of A375Hu); assay: as above; assay type: cell-based; details: Homo sapiens, A375Hu-R1 (A375-R), in vitro acquired resistance, 72 hours
Protocol: as §1
The A375Hu melanoma cell line was used to make a vemurafenib (PLX-4032) resistant sub line. A375Hu cells were plated at low density in 96-well plates and exposed to 1 uM PLX-4032. Cell growth was monitored until clonal growth was observed. Wells with clonal growth (approximately 5%) were replated in a 96-well plate and exposed to 1 uM PLX-4032. The 10 best growing clones were replated in 6-well plates in 1 uM PLX-4032 and the three best growing clones were used for further culturing. Clone number 1 (A375Hu-R1) grew best with 1 uM PLX-4032 and was chosen for additional experiments.

[5] = test system: SKMEL-57 melanoma cell line; assay: as above; assay type: cell-based; details: SKMEL-57, vemurafenib sensitive
Protocol: as §1
A375 cells were obtained from the Hubrecht Institute (Utrecht, The Netherlands); SKMEL-28, A2058 and RPMI-7951 were from the ATCC; SKMEL-57 was a gift from Dr. Patricia Groenen (Radboud University Nijmegen Medical Centre, The Netherlands); for cell line characteristics of M249, M249-AR4, M233 and M376 see (Atefi et al. 2011). A375-R, with in vitro acquired resistance to vemurafenib, was established in our lab by clonal selection of cells continually exposed to 1 μM vemurafenib. A375, A375-R, SKMEL-28, A2058 and SKMEL-57 were grown in DMEM GlutaMAX™-I (Gibco®), all other cell lines in RPMI-1640 (Gibco®). Media was supplemented with 10% FBS (Sigma), and cells were maintained in a humidified 37° C. incubator (Thermo Scientific) with 5% CO2. Vemurafenib (PLX4032; Selleck Chemicals) was diluted in DMSO to a stock concentration of 10 mM.

M233 melanoma cell line = details: M233; value marked with footnote 1) Atefi M. et al.; cited from earlier work
M376 melanoma cell line = details: M376; value marked with footnote 1) Atefi M. et al.; cited from earlier work

GI50 (A2058 melanoma cell line): > 10000 nM
GI50 [1]: 50 nM
GI50 (M249 melanoma cell line): 100 nM
GI50 [2]: 2910 nM
GI50 [3]: > 10000 nM
GI50 [4]: > 10000 nM
GI50 [5]: 700 nM
Structure (SMILES): Cn1cnc2c(F)c(Nc3ccc(Br)cc3Cl)c(C(=O)NOCCO)cc21 [Selumetinib, 6-(4-bromo-2-chlorophenylamino)-7-fluoro-N-(2-hydroxyethoxy)-3-methyl-3H-benzo[d]imidazole-5-carboxamide]
GI50 (M233 melanoma cell line): > 10000 nM
GI50 (M376 melanoma cell line): 1000 nM
